Paper PMC6895048, “4,5-Disubstituted 1,2,3-triazoles: Effective Inhibition of Indoleamine 2,3-Dioxygenase 1 Enzyme Regulates T cell Activity and Mitigates Tumor Growth” (Scientific Reports, 2019)

How the values were obtained:
IDO1 [1] = molecular target: T1, IDO1 (Homo sapiens, UniProt P14902); experiment: Kynurenine assay by HPLC analysis, IDO1; assay type: biochemical; set-up: made in house; host or cells: Escherichia coli M15 (pQE30 vector with pREP4 plasmid); conditions: for IC50: HPLC based IDO1 inhibition assay; for % Of inhibition for IDO1 enzyme / inhibition at 0.032 µM / inhibition at 0.16 µM / inhibition at 0.8 µM / inhibition at 4 µM / inhibition at 20 µM / inhibition at 100 µM: HPLC
Procedure: (§1) HPLC based IDO1, and TDO inhibition assays were performed according to the earlier reported procedure[19],[27]–[30]. The reaction mixture (250 µL) contained KPB (100 mM, pH 6.5 for IDO1 and 50 mM, pH 8.0 for TDO), sodium ascorbate (20 mM), methylene blue (10 µM), catalase (240 nM, from bovine liver, Sigma), L-Trp (150 µM), purified enzyme (40 nM for IDO1 and 25 nM for TDO), DMSO (0.05%, v/v), Triton-X 100 (0.01%, v/v) and inhibitors. The concentration of the compound was varied from 100 µM to 32 nM by serial dilution. The mixture was incubated at 37 °C for 1 hour in the absence and presence of the synthesized compounds. The reaction was then quenched using 50 µL of 30% (w/v) trichloroacetic acid and incubated at 65 °C for additional 15 minutes to allow complete hydrolysis of N-formylkynurenine to kynurenine. After that, the mixture was centrifuged at 10,000 rpm for 10 minutes, and 100 µL of clear solution was transferred to another tube for HPLC analysis. Then, 20 µL of the reaction mixture was then injected through Ascentis® express C18, 2.7 µm HPLC column with a flow rate of 0.5 mL/minute of the mobile phase containing 50% sodium citrate buffer (40 mM, pH 2.25) and 50% methanol (v/v) with 400 µM SDS. The area under the curve at 365 nm chromatogram corresponding to the kynurenine formation was recorded, and % of inhibition was calculated using standard curve prepared with pure kynurenine (from Sigma) under similar experimental conditions.

TDO enzyme = molecular target: T2, TDO enzyme (Homo sapiens, UniProt P48775); experiment: HPLC based TDO inhibition assay; assay type: biochemical
T2 construct: 6xHis (N); made in house; host or cells: Escherichia coli BL21 (DE3) (pET 28a vector)
Procedure: as §1

IDO1 [2] = molecular target: T1, IDO1; experiment: Cellular IDO1 activity assay in IFN-γ induced MDA-MB-231 cells; assay type: cell-based; set-up: induce the expression of the native IDO1 enzyme from its mRNA in the MDA-MB-231 cells; endogenous in cells; host or cells: MDA-MB-231 cells induced with human IFN-γ (50 ng/mL); conditions: IDO1 expression induced by human IFN-γ (50 ng/mL); mean of three
Procedure: The cellular enzyme activity assay was performed according to the reported procedure with minor modifications[19],[27]–[30],[33],[54]. Briefly, MDA-MB-231 breast cancer cells were selected for this assay because of the presence of IDO1 mRNA in this cell line. First, cells were grown in DMEM/F12 complete media overnight. Then different concentration of human interferon-gamma (IFN-γ) (from 5–1000 ng/mL) was added to it and incubated for 48 hours. This treatment is reported to allow over-expression of IDO1 enzyme in MDA-MB-231 cells. […] Sterile cell-culture grade PBS was used to wash the cells by centrifugation technique. Then, the pellet was lysed in 10 mM HEPES buffer by passing through a sterile syringe. The lysate was used for standard IDO1 assay as mentioned earlier. The relative amount of N-formylkynurenine generated in the presence of the different concentration of IFN-γ was used to optimize the required concentration of IFN-γ for the IDO1 inhibition assay. […] Cells stimulated with IFN-γ alone were used as negative control, while cells stimulated with L-Trp without compound served as positive control. The cells were washed with sterile cell culture grade PBS and lysed in 10 mM HEPES buffer by sterile syringe. The lysate was used for standard IDO1 assay, as mentioned earlier, and the extent of IDO1 enzyme inhibition was determined for the selected compounds.

[3] = molecular target: T3, purified human TDO enzyme (Homo sapiens, UniProt P48775); experiment: TDO inhibition assay by the spectrometric method; assay type: biochemical; conditions: spectrophotometric
T3 construct: 6xHis (N); made in house; host or cells: Escherichia coli BL21 (DE3) (pET 28a vector)
Procedure: Both IDO1 and TDO inhibition assays were performed according to the reported procedures[26]–[30],[50],[51]. The solubility of the compounds in water was either moderate or poor. […] In the assay system, the minimum and maximum amount of DMSO was 0.02% and 2%, respectively. The standard reaction mixture (500 μL) containing KPB (100 mM, pH 6.5 for IDO1 enzyme and 50 mM, pH 8.0 for TDO enzyme), sodium ascorbate (20 mM), methylene blue (10 µM), catalase (240 nM, from bovine liver), L-Trp (150 µM), purified enzyme (40 nM for IDO1 and 25 nM for TDO), DMSO (0.05%, v/v), Triton-X 100 (0.01%, v/v) and inhibitors was incubated at 37 °C for 1 hour. The concentration of the inhibitors was varied from 100 µM to 32 nM by serial dilution technique. Then, the reaction was quenched with 100 µL of 30% (w/v) trichloroacetic acid and was incubated for further 15 minutes at 65 °C. After that, 2% (w/v) pDMAB was used to quantify the amount of kynurenine formation. The absorbance of the reaction mixture was recorded by UV-Vis spectrophotometer at 480 nm. The Km = 59.76 µM and Kcat = 6.18 sec^−1.

[4] = molecular target: T4, purified human IDO1 enzyme (Homo sapiens, UniProt P14902); experiment: IDO1 inhibition assay by the spectrometric method (pDMAB); assay type: biochemical; conditions: for IC50: purified human IDO1, spectrophotometric, mean of three independent assays, read-out: hIDO1 IC50
T4 construct: made in house; host or cells: Escherichia coli M15 (pQE30 vector with pREP4 plasmid)
Procedure: Both IDO1 and TDO inhibition assays were performed according to the reported procedures[26]–[30],[50],[51]. […] In the assay system, the minimum and maximum amount of DMSO was 0.02% and 2%, respectively. […] The concentration of the inhibitors was varied from 100 µM to 32 nM by serial dilution technique. Then, the reaction was quenched with 100 µL of 30% (w/v) trichloroacetic acid and was incubated for further 15 minutes at 65 °C. After that, 2% (w/v) pDMAB was used to quantify the amount of kynurenine formation. The absorbance of the reaction mixture was recorded by UV-Vis spectrophotometer at 480 nm.

T1 sequence (P14902 whole entry): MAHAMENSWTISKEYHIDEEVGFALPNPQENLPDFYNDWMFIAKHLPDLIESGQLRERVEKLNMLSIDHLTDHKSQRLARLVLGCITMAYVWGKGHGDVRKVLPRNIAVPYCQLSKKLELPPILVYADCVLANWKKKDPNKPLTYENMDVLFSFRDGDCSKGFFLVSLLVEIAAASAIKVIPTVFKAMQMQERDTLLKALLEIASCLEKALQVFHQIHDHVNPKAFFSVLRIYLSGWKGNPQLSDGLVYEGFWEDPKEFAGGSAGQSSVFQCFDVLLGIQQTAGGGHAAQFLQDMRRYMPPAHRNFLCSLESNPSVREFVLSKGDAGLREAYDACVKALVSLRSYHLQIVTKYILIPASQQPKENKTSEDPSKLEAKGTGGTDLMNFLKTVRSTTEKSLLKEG
T4 sequence (P14902 whole entry): as above
T2 sequence (P48775 whole entry): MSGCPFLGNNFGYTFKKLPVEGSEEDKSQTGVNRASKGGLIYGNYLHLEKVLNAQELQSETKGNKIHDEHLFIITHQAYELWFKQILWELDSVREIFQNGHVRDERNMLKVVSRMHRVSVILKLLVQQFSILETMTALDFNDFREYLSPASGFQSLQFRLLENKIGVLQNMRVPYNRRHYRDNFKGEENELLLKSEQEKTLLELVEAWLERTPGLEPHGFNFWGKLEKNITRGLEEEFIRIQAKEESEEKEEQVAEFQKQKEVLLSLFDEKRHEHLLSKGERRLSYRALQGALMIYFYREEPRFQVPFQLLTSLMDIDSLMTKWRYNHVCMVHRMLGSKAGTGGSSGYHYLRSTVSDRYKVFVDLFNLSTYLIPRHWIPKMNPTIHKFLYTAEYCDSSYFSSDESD
T3 sequence (P48775 whole entry): as above

| IC50 (IDO1 [1]) [nM] | % Of inhibition for IDO1 enzyme (IDO1 [1]; 32 nM) [%] | % Of inhibition for IDO1 enzyme (IDO1 [1]; 160 nM) [%] | % Of inhibition for IDO1 enzyme (IDO1 [1]; 800 nM) [%] | % Of inhibition for IDO1 enzyme (IDO1 [1]; 4 µM) [%] | % Of inhibition for IDO1 enzyme (IDO1 [1]; 20 µM) [%] | % Of inhibition for IDO1 enzyme (IDO1 [1]; 100 µM) [%] | % Of inhibition for TDO enzyme (TDO enzyme; 32 nM) [%] | % Of inhibition for TDO enzyme (TDO enzyme; 160 nM) [%] | % Of inhibition for TDO enzyme (TDO enzyme; 800 nM) [%] | % Of inhibition for TDO enzyme (TDO enzyme; 4 µM) [%] | % Of inhibition for TDO enzyme (TDO enzyme; 20 µM) [%] | EC50 (IDO1 [2]) [nM] | % of Enzyme inhibition (TDO) ([3]; 32 nM) [%] | % of Enzyme inhibition (TDO) ([3]; 160 nM) [%] | % of Enzyme inhibition (TDO) ([3]; 800 nM) [%] | % of Enzyme inhibition (TDO) ([3]; 4 µM) [%] | % of Enzyme inhibition (TDO) ([3]; 20 µM) [%] | % of Enzyme inhibition (TDO) ([3]; 100 µM) [%] | IC50 [4] [nM] | SMILES | also measured |
| --- | --- | --- | --- | --- | --- | --- | --- | --- | --- | --- | --- | --- | --- | --- | --- | --- | --- | --- | --- | --- | --- |
| 8944 ± 87 | 11 | 13 | 29 | 30 | 57 | 65 | 6 | 18 | 26 | 38 | 41 | 1230 ± 21 | 4 | 8 | 16 | 18 | 22 | 30 | 17400 ± 918 | O=C(O)c1n[nH]nc1-c1ccc(F)c(F)c1 [Compound 4a] | % Of inhibition for TDO enzyme (TDO enzyme; 100 µM): 54% |
| 99 ± 24 | 39 | 60 | 70 | 88 | 89 | 89 | 33 | 39 | 42 | 47 | 51 | 53 ± 4 | 6 | 9 | 20 | 27 | 32 | 60 | 69 ± 4 | NC(=O)c1n[nH]nc1-c1ccc(Cl)c(Cl)c1 [Compound 3j] | % Of inhibition for TDO enzyme (TDO enzyme; 100 µM): 51% |
| 98 ± 7 | – | – | – | – | – | – | – | – | – | – | – | 83 ± 5 | – | – | – | – | – | – | 93 ± 9 | NS(=O)(=O)NCCNC(=O)c1n[nH]nc1-c1ccc(Cl)c(Cl)c1 [Compound 4l, 5-(3,4-dichlorophenyl)-N-(2-(sulfamoylamino)ethyl)-2H-1,2,3-triazole-4-carboxamide] | inhibition at 0.032 µM (IDO1 [1]; 32 nM): 33%; inhibition at 0.16 µM (IDO1 [1]; 160 nM): 57%; inhibition at 0.8 µM (IDO1 [1]; 800 nM): 65%; inhibition at 4 µM (IDO1 [1]; 4 µM): 88%; inhibition at 20 µM (IDO1 [1]; 20 µM): 93%; inhibition at 100 µM (IDO1 [1]; 100 µM): 94%; inhibition at 0.032 µM (TDO enzyme; 32 nM): 14%; inhibition at 0.16 µM (TDO enzyme; 160 nM): 15%; inhibition at 0.8 µM (TDO enzyme; 800 nM): 22%; inhibition at 4 µM (TDO enzyme; 4 µM): 29%; inhibition at 20 µM (TDO enzyme; 20 µM): 38%; inhibition at 100 µM (TDO enzyme; 100 µM): 55%; inhibition at 0.032 µM ([3]; 32 nM): 3%; inhibition at 0.16 µM ([3]; 160 nM): 10%; inhibition at 0.8 µM ([3]; 800 nM): 11%; inhibition at 4 µM ([3]; 4 µM): 19%; inhibition at 20 µM ([3]; 20 µM): 25%; inhibition at 100 µM ([3]; 100 µM): 26%; inhibition at 4 µM ([4]; 4 μM compound): 71 to 86%; inhibition at 100 µM ([4]; 100 μM compound): 82 to 93% |
| – | – | – | – | – | – | – | – | – | – | – | – | – | 5 | 8 | 15 | 27 | 35 | 39 | 624 ± 23 | NC(=O)c1n[nH]nc1-c1ccc(Cl)cc1 [Compound 3g] | – |
| – | – | – | – | – | – | – | – | – | – | – | – | – | – | – | – | – | – | – | 90000 ± 2940 | c1ccc(-c2nn[nH]c2-c2ccccc2)cc1 [Compound 1a, 4,5-diphenyl 2H-1,2,3-triazole] | inhibition at 0.032 µM ([3]; 32 nM): 8%; inhibition at 0.16 µM ([3]; 160 nM): 10%; inhibition at 0.8 µM ([3]; 800 nM): 19%; inhibition at 4 µM ([3]; 4 µM): 28%; inhibition at 20 µM ([3]; 20 µM): 40%; inhibition at 100 µM ([3]; 100 µM): 59% |
| 2790 ± 66 | – | – | – | – | – | – | – | – | – | – | – | 3260 ± 45 | – | – | – | – | – | – | 14400 ± 3360 | CCOC(=O)c1n[nH]nc1-c1ccccc1 [Compound 2a, ethyl 5-phenyl-2H-1,2,3-triazole-4-carboxylate] | inhibition at 0.032 µM (IDO1 [1]; 32 nM): 26%; inhibition at 0.16 µM (IDO1 [1]; 160 nM): 31%; inhibition at 0.8 µM (IDO1 [1]; 800 nM): 35%; inhibition at 4 µM (IDO1 [1]; 4 µM): 61%; inhibition at 20 µM (IDO1 [1]; 20 µM): 76%; inhibition at 100 µM (IDO1 [1]; 100 µM): 81%; inhibition at 0.032 µM (TDO enzyme; 32 nM): 9%; inhibition at 0.16 µM (TDO enzyme; 160 nM): 39%; inhibition at 0.8 µM (TDO enzyme; 800 nM): 49%; inhibition at 4 µM (TDO enzyme; 4 µM): 68%; inhibition at 20 µM (TDO enzyme; 20 µM): 68%; inhibition at 100 µM (TDO enzyme; 100 µM): 73%; inhibition at 0.032 µM ([3]; 32 nM): 8%; inhibition at 0.16 µM ([3]; 160 nM): 17%; inhibition at 0.8 µM ([3]; 800 nM): 19%; inhibition at 4 µM ([3]; 4 µM): 23%; inhibition at 20 µM ([3]; 20 µM): 27%; inhibition at 100 µM ([3]; 100 µM): 34%; fold stronger IDO1 inhibitory activity than 1a ([4]; in comparison with lead compound 1a): 6 fold |
| – | – | – | – | – | – | – | – | – | – | – | – | – | 16 | 18 | 23 | 28 | 36 | 46 | 392 ± 84 | CCOC(=O)c1n[nH]nc1-c1ccc(Cl)cc1 [Compound 2g] | – |
| 257 ± 9 | 24 | 31 | 52 | 65 | 77 | 77 | 1 | 35 | 36 | 49 | 41 | 160 ± 7 | 8 | 12 | 25 | 30 | 44 | 53 | 163 ± 25 | CCOC(=O)c1n[nH]nc1-c1ccc(Cl)c(Cl)c1 [Compound 2j] | % Of inhibition for TDO enzyme (TDO enzyme; 100 µM): 43% |
